# Test results as given in patent US20230330059A1, “3-PHENYL-2H-CHROMENE DERIVATIVE AND PHARMACEUTICAL COMPOSITION FOR PREVENTING OR TREATING ALZHEIMER'S, CONTAINING SAME” (NEUROBIONET, INC., priority 2020, published 2023).
# Where two headings read alike, the source gives them in different places.
# What was measured:
# [1] = system: nitric oxide production in LPS-treated BV2 cells; assay: Nitric oxide production (Griess) in LPS-treated BV2 cells; assay type: cell-based, mouse; conditions: for NO production: LPS-treated BV2 cells, FIG. 4 (lower), 8a; for IC50: Mus musculus, read-out: IC50 (NO production)
# Protocol: (§1) BV2 cells were seeded at a density of 4 x 10^5 cells/well into 96-well plates, and primary microglial cells isolated from the brain of […] ICR mice were seeded at a density of 4 x 10^5 cells/well into 24-well plates.
# (§2) The culture media were collected and measured for NO production using a Griess reagent solution (1% sulfanilamide and 0.1% N-1-naphthyl ethylenediamine dihydrochloride in 5% phosphoric acid). Briefly, a total of 50 µL of the supernatant was transferred to new 96-well plates and mixed with the same volume of the Griess reagent solution, followed by measuring OD at 570 nm. In addition, the cell viability was assayed in the same manner as in Experimental Example 2.
# [2] = system: nitric oxide production in LPS-treated primary microglia; assay: Nitric oxide production (Griess) in LPS-treated primary microglia; assay type: cell-based, ICR mice; conditions: FIG. 9a
# Protocol: as §1
# as §2, with “After stabilization for 24 hours, the cells were treated with various concentrations (1 and 5 µM) of daidzein, o-desmethylangolensin, S-equal, SPA1413, and SPA1426 for 30 minutes and then with LPS (100 ng/ml) for 24 hours at 37° C. The” for “The”
# [3] = system: LPS-treated BV2 cells; assay: Cell viability of LPS-treated BV2 cells; assay type: cell-based, mouse; conditions: FIG. 8b
# Protocol: Mouse-derived microglia (BV2 cells) purchased from the Korean Cell Line Bank were seeded at a density of 4x10^5 cells/well into 96-well plates, each well containing DMEM (Dulbecco’s Modified Eagle’s Media) supplemented with 10% FBS and 1% antibiotics, and stabilized by incubation for 24 hours. Thereafter, the cells were treated for 24 hours with various concentrations (0.5, 1, and 5 µM) of daidzein, o-desmethylangolensin (O-DMA), S-equal, SPA1413, and SPA1426. After removal of the medium, the cells were treated 0.5 mg/ml 3-(4,5-dimethylthiazol-2-yl)-2,5-diphenyltetrazolium bromide (MTT) solution 1 hour. The reduced formazan was dissolved in 150 µl of dimethyl sulfoxide (DMSO) and absorbance was read at 570 nm in a microspectrophotometer to determine cell viability. Cell viability of the cells treated with each sample was determined relative to that of the untreated normal control (Control), which was set to be 100%, and the results are depicted in FIGS. 3 and 4 (upper).
# After stabilization for 24 hours, the cells were treated with various concentrations (1 and 5 µM) of daidzein, o-desmethylangolensin, S-equal, SPA1413, and SPA1426 for 30 minutes and then with LPS (100 ng/ml) for 24 hours at 37° C. […]
# [4] = system: LPS-treated primary microglia; assay: Cell viability of LPS-treated primary microglia; assay type: cell-based, ICR mice; conditions: FIG. 9b
# [5] = system: TNF-a; assay: TNF-a production (ELISA) in LPS-treated BV2 cells; assay type: cell-based, mouse; conditions: 5 µM, LPS (100 ng/ml) 24 hours, FIG. 10b
# Protocol: BV2 cells were seeded at a density of 4x10^5 cells/well into 96-well plates and stabilized for 24 hours. Thereafter, the cells were treated with 5 µM of daidzein, o-desmethylangolensin, S-equal, SPA1413, or SPA1426 for 30 minutes and then with LPS (100 ng/ml) for 24 hours at 37° C. The culture medium was collected and quantitatively measured for IL-6 and TNF-a released to the BV2 culture supernatant, using the enzyme immunoassay method […] Enzyme-Linked Immuno Assay (ELISA) kit (R&D systems, Minneapolis, MN, USA). The IL-6 and TNF-a releases from the groups treated with the samples were evaluated relative to that from the LPS-treated group, which was set to be 100%, and the results are depicted in FIGS. 10a and 10b.
# [6] = system: iNOS; assay: iNOS protein expression (western blot) in LPS-treated BV2 cells; assay type: cell-based, mouse; conditions: 5 µM, LPS (100 ng/ml) 24 hours, FIG. 11b
# Protocol: BV2 cells were aliquoted at a density of 1x10^6 cells/well into 60 mm dishes and stabilized for 24 hours. Thereafter, the cells were treated with 5 µM of S-equal, SPA1413, or SPA1426 for 30 minutes and then with LPS (100 ng/ml) for 24 hours at 37° C. After being cultured to reach 100% confluence, the cells were washed with PBS and lysed with a lysis buffer (PRO-PREP™ Protein Extraction Solution, Intron Biotechnology, Seongnam, Korea). With bovine serum albumin (BSA) serving as a standard, the protein contents of the lysate supernatants were measured by Bio-Rad Protein Assay (Bio-Rad, California, USA) to determine the total protein content in each sample. Afterwards, each of the samples was loaded in a protein amount of 30 µg on a 10-12% SDS-PAGE gel and run for electrophoresis. The electrophorized proteins were transferred to a PVDF membrane which was then blocked with 5% skim milk and incubated with antibodies to COX-2 or iNOS (Cell Signaling Technologies, Massachusetts, USA). Detection was conducted with a ChemiDoc XRS+ imaging system (Bio-Rad, CA, USA).
# [7] = system: N2a cells; assay: Neurite outgrowth in N2a cells (Incucyte); assay type: cell-based, mouse; conditions: 5 µM, FIGS. 14a and 14b
# Protocol: N2a cells were aliquoted at a density of 1x10^4 cells/well into 24-well plates, treated with daidzein, o-desmethylangolensin, S-equal, SPA1413 and SPA1426 at 5 µM, and evaluated for neurite outgrowth by the real-time cell monitoring system InCucyte. The cells were photographed every 2 hours, and the neurites were counted through Incucyte software.
# [8] = target: MGO-AGEs (Bos taurus, UniProt P02769); assay: Breaking of MGO-induced advanced glycation end products (TNBSA free amine); assay type: biochemical
# Protocol: Bovine serum albumin (BSA) was stored at 37° C. for 7 days in mixture with methylglyoxal (MGO) and sodium azide) to prepare AGEs. The AGEs derived from MGO are referred to as “MGO-AGEs”. MGO-AGEs with a concentration of 1 mg/ml were treated for 24 hours with various concentrations (0.1, 0.2, and 0.4 mM) of SPA1413. As a positive control, aminoguanidine (AG), known as an AGE inhibitor, was used. MGO-AGEs were reacted with 2,4,6-trinitrobenzene sulfonic acid (TNBSA) and 4% sodium bicarbonate, followed by adding 10% sodium dodecyl sulfate and 1 N HCl to terminate the reaction. Absorbance was read at 335 nm accounting for free amines, which resulted from the breaking degradation of AGEs, in a microplate to evaluate the efficacy of degrading AGEs.
# Sequence of MGO-AGEs (P02769 25-607): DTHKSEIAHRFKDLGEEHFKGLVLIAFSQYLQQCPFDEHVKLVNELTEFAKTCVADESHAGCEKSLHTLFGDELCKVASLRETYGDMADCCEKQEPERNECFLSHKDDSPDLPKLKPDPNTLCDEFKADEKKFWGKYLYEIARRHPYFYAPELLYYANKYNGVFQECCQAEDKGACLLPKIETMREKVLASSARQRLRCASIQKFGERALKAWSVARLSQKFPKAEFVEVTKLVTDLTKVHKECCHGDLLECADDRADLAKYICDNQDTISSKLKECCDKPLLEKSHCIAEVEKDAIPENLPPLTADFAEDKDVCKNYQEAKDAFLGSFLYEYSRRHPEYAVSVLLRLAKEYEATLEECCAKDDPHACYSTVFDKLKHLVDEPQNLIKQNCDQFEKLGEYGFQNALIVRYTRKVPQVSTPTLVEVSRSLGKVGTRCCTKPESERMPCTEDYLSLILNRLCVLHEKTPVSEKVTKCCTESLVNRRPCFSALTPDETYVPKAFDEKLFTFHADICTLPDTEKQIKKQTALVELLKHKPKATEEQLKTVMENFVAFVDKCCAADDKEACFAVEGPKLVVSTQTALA
"IC50 ([1]; BV-2, LPS (100 ng/ml) 24 hours, Griess reagent, cell type not stated in Table 1) [µM]","free amines from breaking of MGO-AGEs, compared to SPA1413 ([8]; FIG. 19)",SMILES,NO production [1],"IC50 ([1]; BV-2, 24 h) [µM]",NO production [2],cell viability compared to the group treated with LPS [3],cell viability compared to the group treated with LPS [4],TNF-a production [5],expression level of iNOS [6],neurite outgrowth [7],"free amines from breaking of MGO-AGEs, compared to the negative control (MGO-AGEs) ([8]; 0.1, 0.2 and 0.4 mM, 24 hours, MGO-AGEs 1 mg/ml, FIG. 18)"
–,–,"Oc1ccc(C2=Cc3ccc(O)cc3OC2)cc1 [SPA1413, 3-(4-Hydroxyphenyl)-2H-chromen-7-ol]",decreased NO production in dose-dependent manners,5.2,decreased NO production in dose-dependent manners,increased,increased,significantly decreased,significantly decreased,significantly increased,increased levels of free amines
3.67,higher levels of free amines,"CCCC(=O)Oc1ccc(C2=Cc3ccc(OC(=O)CCC)cc3OC2)cc1 [SPA1426, 4-(7-(butyryloxy)-2H-chromen-3-yl)phenyl butyrate]",decreased NO production in dose-dependent manners,–,decreased NO production in dose-dependent manners,increased,increased,significantly decreased,significantly decreased,significantly increased,–
